Laboratory results taken from patent US20200345011A1, “METHOD OF […] GROWTH IN SOIL” (CH2O Incorporated, priority 2008, published 2020).

Legend:
[1] = Decomposition in soil and consequences to the environment; details: soil bed treatment
Text: (§1) Water (27.5%), PBTC (17.5%) and hydrochloric acid (HCl) (55%) were admixed to form a first solution. Water (85%) and sodium chlorite (15%) were admixed to form a second solution. The first and second solutions were combined to form a combined solution. Sufficient contact time was allowed in the mixing vessel 12 to convert a substantial portion of the sodium chlorite solution into chlorine dioxide. The combined solution can also be referred to as chlorine dioxide. For test purposes, five soil beds were prepared. These beds were covered with sheet plastic. In the first bed, 150 ppm of chlorine dioxide was added irrigation water and the mixture was introduced to the soil bed until the soil bed was saturated. In the second soil bed, 350 ppm of chlorine dioxide was added to irrigation water and the mixture was introduced into the second soil bed until the second soil bed was saturated. The third soil bed received 750 ppm of chlorine dioxide in irrigation water until that bed was saturated. The fourth soil bed received a mixture of 950 ppm of chlorine dioxide in irrigation water until that soil bed was saturated. The fifth soil bed was treated with methyl-bromide at E.P.A. label recommended dose rates.

[2] = Crop yield and fruit quality from treated soils; type: in vivo
Text: Water (27.5%), PBTC (17.5%) and hydrochloric acid (HCl) (55%) were admixed to form a first solution. Water (85%) and sodium chlorite (15%) were admixed to form a second solution. The first and second solutions were combined to form a combined solution. Sufficient contact time was allowed in the mixing vessel 12 to convert a substantial portion of the sodium chlorite solution into chlorine dioxide. The combined solution can also be referred to as chlorine dioxide. For test purposes, five soil beds were prepared. These beds were covered with sheet plastic. […] […] […] […] The fifth soil bed was treated with methyl-bromide at E.P.A. label recommended dose rates.

[3] = test system: weed and undesirable plant growth; test: Weed growth suspension in treated, plastic-covered soil beds; type: in vivo; details: after six days of treatment
Text: as §1

[4] = soil treated with methyl bromide, used as at EPA label requirements

| Compound | Consequences to the environment [1] | Crates/Acres ([2]; 75 ppm solution) [Crates/Acres] | Fruit Grams ([2]; 75 ppm solution) [Grams] | Marketable Crates/Acre ([2]; 75 ppm solution) [Crates/Acre] | Crates/Acres ([2]; 175 ppm solution) [Crates/Acres] | Fruit Grams ([2]; 175 ppm solution) [Grams] | Marketable Crates/Acre ([2]; 175 ppm solution) [Crates/Acre] | Crates/Acres ([2]; 375 ppm solution) [Crates/Acres] | Fruit Grams ([2]; 375 ppm solution) [Grams] | Marketable Crates/Acre ([2]; 375 ppm solution) [Crates/Acre] | Crates/Acres ([2]; 475 ppm solution) [Crates/Acres] | Fruit Grams ([2]; 475 ppm solution) [Grams] | Marketable Crates/Acre ([2]; 475 ppm solution) [Crates/Acre] | Yield performance of treated soils versus methyl bromide treated soils ([2]; comparison in words) | Yield at the higher chlorine dioxide levels ([2]; higher versus lower chlorine dioxide levels, in words) | Suspension of weed and undesirable plant growth ([3]; all four dosages (150, 350, 750, 950 ppm in irrigation water, bed saturated)) | Crates/Acres [2, 4] [Crates/Acres] | Fruit Grams [2, 4] [Grams] | Marketable Crates/Acre [2, 4] [Crates/Acre] | Effectiveness as a fumigant ([3]; E.P.A. label recommended dose rates) |
| --- | --- | --- | --- | --- | --- | --- | --- | --- | --- | --- | --- | --- | --- | --- | --- | --- | --- | --- | --- | --- |
| [O][Cl+][O-] [Chlorine Dioxide, chlorine dioxide] | without any negative consequences to the environment | 495 | 25.5 | 431 | 483 | 26.6 | 435 | 429 | 27.1 | 572 | 651 | 28.9 | 605 | exceeded the methyl bromide treated soils | greater yields | suspend weed and undesirable plant growth entirely | – | – | – | – |
| CBr [Methyl Bromide, Methyl-bromide, reference compound] | had an adverse effect on the environment | – | – | – | – | – | – | – | – | – | – | – | – | – | – | – | 455 | 32.8 | 428 | effective as a fumigant |
